The values that follow come from ChEMBL document CHEMBL4765420, “Design, synthesis and biological evaluation of novel HDAC inhibitors with improved pharmacokinetic profile in breast cancer” (Eur J Med Chem, 2020).

The target of this assay is T1, Histone deacetylase 7 (Homo sapiens, UniProt Q8WUI4).
T1 sequence (Q8WUI4 whole entry): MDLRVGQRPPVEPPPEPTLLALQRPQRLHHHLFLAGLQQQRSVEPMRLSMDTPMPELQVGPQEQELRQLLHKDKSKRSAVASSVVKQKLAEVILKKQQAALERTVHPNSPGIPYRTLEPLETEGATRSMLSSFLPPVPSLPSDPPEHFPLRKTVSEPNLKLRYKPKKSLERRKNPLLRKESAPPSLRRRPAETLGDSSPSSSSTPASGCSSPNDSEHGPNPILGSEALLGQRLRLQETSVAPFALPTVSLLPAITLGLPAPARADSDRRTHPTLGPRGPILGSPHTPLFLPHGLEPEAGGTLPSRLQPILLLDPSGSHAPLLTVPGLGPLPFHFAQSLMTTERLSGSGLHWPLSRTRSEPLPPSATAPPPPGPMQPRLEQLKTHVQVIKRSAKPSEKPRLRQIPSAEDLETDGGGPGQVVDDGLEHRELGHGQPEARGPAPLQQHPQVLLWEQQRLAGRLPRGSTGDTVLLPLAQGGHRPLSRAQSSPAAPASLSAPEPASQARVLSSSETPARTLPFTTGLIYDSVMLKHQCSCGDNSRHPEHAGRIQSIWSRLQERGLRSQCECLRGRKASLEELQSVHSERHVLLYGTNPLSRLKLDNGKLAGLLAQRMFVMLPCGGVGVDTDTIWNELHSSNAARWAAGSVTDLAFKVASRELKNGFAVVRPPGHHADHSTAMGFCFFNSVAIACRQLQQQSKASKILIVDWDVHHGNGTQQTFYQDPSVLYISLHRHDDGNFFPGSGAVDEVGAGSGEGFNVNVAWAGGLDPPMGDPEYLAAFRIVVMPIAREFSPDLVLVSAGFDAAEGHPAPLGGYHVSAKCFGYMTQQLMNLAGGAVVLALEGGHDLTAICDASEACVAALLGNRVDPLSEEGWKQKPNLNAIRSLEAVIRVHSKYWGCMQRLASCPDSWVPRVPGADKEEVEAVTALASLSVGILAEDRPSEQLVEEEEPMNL
Description: Inhibition of HDAC7 (unknown origin) using AcLeu-Gly-Lys(Tfa)-AMC as substrate measured after 30 mins by fluorescence assay.

In the case of `COc1cc(OC)c2c(N3CCS(=O)(=O)CC3)nc(-c3cc(C)c(OCCCCCC(=O)NO)c(C)c3)nc2c1`, the IC50 (commonly the concentration that inhibits the measured activity by half) was > 1000 nM.
